The target of this test is T1, Interstitial collagenase [100-268] (Homo sapiens, UniProt P03956).
T1 construct: 100-268
T1 sequence (P03956 whole entry): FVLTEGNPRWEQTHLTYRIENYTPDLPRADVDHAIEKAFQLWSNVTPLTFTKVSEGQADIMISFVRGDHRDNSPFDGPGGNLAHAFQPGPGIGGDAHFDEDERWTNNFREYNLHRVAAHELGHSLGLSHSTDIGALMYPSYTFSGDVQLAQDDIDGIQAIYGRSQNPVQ
The test can be described thus: cd-MMP-1 Activity Assay. As to conditions: pH 7.5. The method, then:
The activity of cd-MMP-1 was measured using a fluorescence-based assay. It was performed in white 96-well half area microplate (Greiner) in a final volume of 100 μL. […] The reaction was initiated by the addition of 50 μl of quenched fluorogenic peptide substrate: Dnp-Pro-beta-cyclohexyl-Ala-Gly-Cys(Me)-His-Ala-Lys(Nma)-NH2 (final concentration 5 μM). The cd-MMP-1 activity was determined in an Synergy™ 2 Multi-Mode Microplate Reader(BioTek) at an excitation wavelength of 360 nm and an emission wavelength of 460 nm.

Where “and” joins values, the source holds several entries; their conditions need not be identical. Equal values may be shown once.

`O=c1c(O)c(-c2cc(O)c(O)c(O)c2)oc2cc(O)cc(O)c12`: the IC50 is 2920 nM.
In the case of `CNC(=O)C(CCc1ccccc1)NC(=O)C(CC(=O)NO)CC(C)C` (stereo unspecified) it was 10 nM.
Next, `O=c1c(O)c(-c2ccc(O)cc2)oc2cc(O)cc(O)c12`: 1350 nM and 3920 nM; `COc1ccc(S(=O)(=O)N2CC(C)(C)CN(S(=O)(=O)c3ccc(OC)cc3)C2C(=O)NO)cc1` [1,3-BIS-(4-METHOXY-BENZENESULFONYL)-5,5-DIMETHYL-HEXAHYDRO-PYRIMIDINE-2-CARBOXYLIC ACID HYDROXYAMIDE]: 13 nM.
In the case of `O=c1c(O)c(-c2ccc(O)cc2O)oc2cc(O)cc(O)c12` [2-(2,4-dihydroxyphenyl)-3,5,7-trihydroxychromen-4-one] it was 4850 nM; in that of `O=c1cc(-c2ccc(O)c(O)c2)oc2cc(O)cc(O)c12` [2-(3,4-dihydroxyphenyl)-5,7-dihydroxy-4H-chromen-4-one], 3030 nM.
